Patent US20120225097A1, “PIPERAZINECARBOXAMIDE DERIVATIVE USEFUL AS A MODULATOR OF FATTY ACID AMIDE HYDROLASE (FAAH)” (priority 2009, published 2012)
Values joined by “and” are separate entries in the source; they are usually repeats but may differ in a detail not shown here. Equal entries are not always repeated. Structures can show the parent of a compound that is named as a salt.

Key:
human FAAH = target: T1, human FAAH (Homo sapiens, UniProt O00519); assay: Assay Method 1: FAAH assay, anandamide hydrolysis in cell homogenate; type: biochemical; conditions: average value (standard error of the mean in parenthesis); 3H-AEA 80 nM, 1 h rt
T1 construct: expressed in transfected cells
T1 sequence (O00519 1-579): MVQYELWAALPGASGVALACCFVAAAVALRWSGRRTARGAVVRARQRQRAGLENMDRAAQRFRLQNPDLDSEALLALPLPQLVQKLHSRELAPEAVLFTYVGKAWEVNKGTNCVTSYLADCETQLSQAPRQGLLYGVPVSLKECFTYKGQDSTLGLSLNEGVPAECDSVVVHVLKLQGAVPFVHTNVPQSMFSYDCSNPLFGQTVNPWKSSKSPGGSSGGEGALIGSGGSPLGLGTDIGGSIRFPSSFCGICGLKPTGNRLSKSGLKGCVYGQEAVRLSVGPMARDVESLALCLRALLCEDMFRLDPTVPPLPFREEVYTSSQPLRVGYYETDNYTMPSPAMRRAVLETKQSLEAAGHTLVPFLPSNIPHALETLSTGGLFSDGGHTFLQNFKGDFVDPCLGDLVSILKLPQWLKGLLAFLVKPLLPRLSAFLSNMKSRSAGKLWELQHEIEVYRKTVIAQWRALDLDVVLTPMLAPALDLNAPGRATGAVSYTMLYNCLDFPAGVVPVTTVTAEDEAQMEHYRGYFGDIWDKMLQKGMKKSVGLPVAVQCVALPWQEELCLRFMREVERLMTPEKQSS
Method: A. Transfection of Cells with Human FAAH
A 10-cm tissue culture dish with a confluent monolayer of SK-N-MC cells was split 2 days (d) prior to transfection. Using sterile technique, the media was removed and the cells were detached from the dish by the addition of trypsin. One fifth of the cells were then placed onto a new 10-cm dish. Cells were grown in a 37° C. incubator with 5% CO2 in Minimal Essential Media Eagle with 10% Fetal Bovine Serum. After 2 d, cells were approximately 80% confluent. These cells were removed from the dish with trypsin and pelleted in a clinical centrifuge. The pellet was re-suspended in 400 μL complete media and transferred to an electroporation cuvette with a 0.4 cm gap between the electrodes. Supercoiled human FAAH cDNA (1 μg), corresponding to NCBI accession NM_001441, was added to the cells and mixed. The voltage for the electroporation was set at 0.25 kV, and the capacitance was set at 960 μF. After electroporation, the cells were diluted into complete media (10 mL) and plated onto four 10-cm dishes. Due to variability in the efficiency of electroporation, four different concentrations of cells were plated. The ratios used were 1:20, 1:10, and 1:5, with the remainder of the cells being added to the fourth dish. The cells were allowed to recover for 24 h before adding the selection media (complete media with 600 μg/mL G418). After 10 d, dishes were analyzed for surviving colonies of cells. Dishes with well-isolated colonies were used. Cells from individual colonies were isolated and tested.
T84 frozen cell pellets or transfected SK-N-MC cells (contents of 1×15 cm culture dishes) were homogenized in 50 mL of FAAH assay buffer (125 mM Tris, 1 mM EDTA, 0.2% Glycerol, 0.02% Triton X-100, 0.4 mM Hepes, pH 9). The assay mixture consisted of 50 μL of the cell homogenate, 10 μL of the test compound, and 40 μL of anandamide [1-^3H-ethanolamine] (^3H-AEA, Perkin-Elmer, 10.3 Ci/mmol), which was added last, for a final tracer concentration of 80 nM. The reaction mixture was incubated at rt for 1 h. […]

[1] = system: Langendorff isolated heart; assay: Assay Method 3: Langendorff isolated heart protocol; design: species or system Sprague-Dawley rats; conditions: isolated rat heart; for effect on left ventricular developed pressure (LVDevP): 30 μM; for effect on left ventricular systolic pressure (LVSP): maximum concentration tested 30 μM; for hearts showing greater than 30% slowing of heart rate: perfused at 30 μM; for hearts showing greater than 30% heart rate slowing: bath concentration 26 μM
Method: Langendorff Isolated Heart Protocol
Male Sprague-Dawley rats (300-500 g) were anesthetized by an intraperitoneal injection of sodium pentobarbital (50 mg/kg), and then euthanized via cardiectomy. Hearts were rapidly removed, mounted on a
A ventricular drain and fluid-filled latex balloon was secured in the left ventricle with a purse string suture at the atrial appendage. Hearts were not paced. […] The hearts were maintained at approximately 37° C. while suspended in a glass chamber and bathed with Krebs-Henseleit buffer. The latex balloon in the left ventricle (LV) was expanded with water to achieve a LV end-diastolic pressure (LVEDP) of approximately 10-15 mmHg. The balloon was connected via tubing to a pressure transducer to measure LVEDP, LV […] pressure (LVDP) and LV systolic pressure (LVSP). Coronary perfusion pressure (CPP) was measured with a pressure transducer connected to a side-arm port of the aortic cannula.
Individual hearts were equilibrated for approximately 10-15 minutes. Following this equilibration period, baseline measurements were collected for approximately 15 minutes. After this period, a first heart was exposed to test compound for a total 75 min (comprising five increasing concentrations of test compound for approximately 15 minutes at each concentration) with measurements collected continuously. Test compound was dissolved in DMSO and then added directly to the experiment perfusion medium.
A one mL sample of perfusion medium was taken from the heart exudate at the end of each 15 minute monitoring period. The samples were frozen on dry ice, stored in a freezer set to maintain −80° C. until analysis. At the conclusion of the experiment, the hearts were frozen with liquid nitrogen and stored in a freezer set to maintain a temperature of −80° C. until analyzed.

Row | SMILES | IC50 (human FAAH) [nM] | effect on left ventricular developed pressure (LVDevP) [1] | effect on left ventricular systolic pressure (LVSP) [1] | hearts showing greater than 30% slowing of heart rate [1] | hearts showing greater than 30% heart rate slowing [1] | hearts showing greater than 30% heart rate slowing ([1]; listed as 4-[3-(4-bromophenoxy)benzyl]-N-pyridin-3-ylpiperazine-1-carboxamide bis-hydrochl) | effect on left ventricular systolic pressure (LVSP) ([1]; listed as N-pyridin-3-yl-4-{3-[4-(trifluoromethyl)phenoxy]benzyl}piperazine-1-carboxamide , bis-hydrochloride dihydrate) | effect on left ventricular systolic pressure (LVSP) ([1]; listed as N-pyridin-3-yl-4-{3-[4-(trifluoromethyl)phenoxy]benzyl}piperazine-1-carboxamide, bis-hydrochloride dihydrate)
1 | O=C(Nc1cccnc1)N1CCN(Cc2cccc(Oc3ccc(Cl)cc3)c2)CC1 [4-({3-[(4-Chlorophenyl)oxy]phenyl}methyl)-N-pyridin-3-ylpiperazine-1-carboxamide] | 2.4 | near-doubling | marked increase | all hearts (n=4) and 4/4 | – | – | – | –
2 | O=C(Nc1cccnc1)N1CCN(Cc2cccc(Oc3ccc(Br)cc3)c2)CC1 [4-[3-(4-Bromophenoxy)benzyl]-N-pyridin-3-ylpiperazine-1-carboxamide] | 1 | – | – | – | 3/4 | three of four | – | –
3 | O=C(Nc1cccnc1)N1CCN(Cc2cccc(Oc3ccc(C(F)(F)F)cc3)c2)CC1 [Example 1, N-Pyridin-3-yl-4-{3-[4-(trifluoromethyl)phenoxy]benzyl}piperazine-1-carboxamide, bis-hydrochloride dihydrate] | 1 | decrease | – | two of five | – | – | did not induce an abrupt increase | did not
